Results reported in patent publication US11642322B2, “Food supplement and composition comprising choline butyrate salt and/or butyrylcholine” (A[…], priority 2016, dated 2023).
Read-outs that look alike come from different tables or passages of the source.

Legend:
[1] = test system: villi; conditions: 1100 mg per kilogram feed; for average length of the villi: 5 chickens
Experimental: 20 days old ROSS® 308 meat chickens were used for this test. The test lasted from the first day of life of the chickens till day 39. […] The average length of the villi of 5 chickens was measured for each group after 14 days. […] The average length of the villi of 5 chickens was measured for each group after 39 days. […] The uncertainty of the measurement value is lower than 0.05.
(§1) The design of the test was for the rest similar to the one described above.

[2] = 1100 mg per kilogram feed, first day of life till day 39
Text: 396 days old ROSS® 308 meat chickens were used for this test. The test lasted from the first day of life of the chickens till day 39. […] The uncertainty of the measurement value is lower than 0.05.
as §1

[3] = test system: CD3+ T-cells
Experimental: 20 days old ROSS® 308 meat chickens were used for this test. The test lasted from the first day of life of the chickens till day 14. […] On day 14, the average amount of CD3+ T-cells was determined for both groups.

[4] = test system: coccidiose; assay: Influence on Coccidiose infection (chickens in a shed infected with coccidiose); conditions: 1100 mg per kilogram feed, till day 39
Text: 496 days old ROSS® 308 meat chickens were used for this test and were placed in a shed that was infected with coccidiose. The test lasted from the first day of life of the chickens till day 39. […] The uncertainty of the measurement value is lower than 0.05.

Compound	increase of the length of the villi compared to the control group ([1]; after 39 days) [%]	decrease of the FCR value with respect to the control group [2] [%]	change of the surface percentage for CD3+ compared to the control group (in words) ([3]; similar design, added to the feed)	increase of the length of the villi compared to the control group ([1]; after 14 days) [%]	average length of the villi ([1]; after 14 days) [μm]	average length of the villi ([1]; after 39 days) [μm]	FCR value ([2]; test group)	animals that died, supplemented group versus control [4]	decrease of the FCR value versus control group [4] [%]	FCR value ([4]; test group)	increase of the surface percentage for CD3+ versus control group ([3]; day 14, 1100 mg per kilogram feed) [%]	surface percentage for CD3+ ([3]; day 14, test group, 1100 mg per kilogram feed) [surface percentage]
CCCC(=O)OCC[N+](C)(C)C [butyrylcholine, (N,N,N-trimethyl)-2-ammoniumethylbutanoate]	21	5	increase									
CCCC(=O)[O-].C[N+](C)(C)CCO [choline butyrate]	21	5		7	779	1231	1.57	more animals died	13	2.22	27	23
